# According to the PolyMetriX glass transition set:
# ± gives the standard deviation of the reports.
row,glass transition temperature [°C],SMILES
1,149.00,*Oc1ccc(C(C)(c2ccccc2)c2ccc(OC(=O)OC3C(C)(C)C(OC(*)=O)C3(C)C)cc2)cc1 (repeat unit)
2,132.00,*CC(*)(CC(=O)Oc1ccccc1)C(=O)Oc1ccccc1 (repeat unit)
3,37.00,*c1cc(OCCCC)c(*)cc1OCCCC (repeat unit)
4,9.50,*/C=C/c1cccc(/C=C/[Si](C)(CCC(F)(F)F)c2cccc([Si](*)(C)CCC(F)(F)F)c2)c1 (repeat unit)
5,108.00,*c1ccc(C(C#N)(C(=O)OCC)C(*)(C#N)C(=O)OCC)cc1 (repeat unit)
6,234.20,*Nc1ccc(NC(=O)c2cc(-c3ccc(C(=O)OC)c(C(*)=O)c3)ccc2C(=O)OC)cc1 (repeat unit)
7,117.00,*CCCCCCCCOc1cccc(NC(=O)c2cccc(C(=O)Nc3cccc(O*)c3)c2)c1 (repeat unit)
8,60.80,*CCOC(=O)NCCCCCCCCCCNC(=O)O* (repeat unit)
9,62.80,*O[Si](*)(C)CCCOc1ccc(C(=O)Oc2ccc(-c3ccc(OC(=O)c4cc(OCC)cc(OCC)c4)cc3)cc2)cc1 (repeat unit)
10,264.00,*c1ccc(-c2ccc(C(*)(C(F)(F)F)C(F)(F)F)cc2)cc1 (repeat unit)
11,361.00,*C(=O)Nc1cc(NC(=O)c2ccc3c(c2)C(=O)N(c2cccc(N4C(=O)c5ccc(*)cc5C4=O)c2)C3=O)cc(-c2nc3ccccc3[nH]2)c1 (repeat unit)
12,-26.00,*CCCCCCCCCCCCCCCCOC(=O)CCCCCCC(=O)O* (repeat unit)
13,10.10,*CCC[Si](*)(C)O[Si](C)(C)CCCOc1ccc(C(=O)Oc2ccc(-c3ccc(C#N)cc3)cc2)cc1 (repeat unit)
14,20.00,*CCCCOc1cccc(C(=O)OC(=O)c2cccc(O*)c2)c1 (repeat unit)
15,133.00,*Nc1ccc(NC(=O)CCCCCC(*)=O)cc1 (repeat unit)
16,211.00,*Cc1c(C)c(C)c(CNC(=O)CCCCCC(C)CC(=O)N*)c(C)c1C (repeat unit)
17,241.00,*C(=O)c1ccc(Oc2ccc(-c3ccc(Oc4ccc(C(=O)c5ccc6c(c5)C(=O)N(c5ccc(Cc7ccc(N8C(=O)c9ccc(*)cc9C8=O)cc7)cc5)C6=O)cc4)cc3)cc2)cc1 (repeat unit)
18,123.00,*CCCCCCCCCCN1C(=O)c2ccc(C(c3ccc4c(c3)C(=O)N(*)C4=O)(C(F)(F)F)C(F)(F)F)cc2C1=O (repeat unit)
19,230.00,*c1cc(C(C)C)c(Oc2ccc(S(=O)(=O)c3ccc(Oc4cc(C)c(C5(*)OC(=O)c6ccccc65)cc4C(C)C)cc3)cc2)cc1C (repeat unit)

row,glass transition temperature [°C],SMILES
1,-28.50,*O[Si](C)(C)c1c(F)c(F)c(F)c([Si](*)(C)C)c1F (repeat unit)
2,183.50,*Oc1ccc(C(c2ccc(OC(*)=O)cc2)(C(F)(F)Cl)C(F)(F)Cl)cc1 (repeat unit)
3,144.00,*Oc1ccc(C2(c3ccc(Oc4ccc(C(=O)Oc5ccc(C(C)(C)c6ccc(OC(=O)c7ccc(*)cc7)cc6)cc5)cc4)cc3)CCC(C(C)(C)C)CC2)cc1 (repeat unit)
4,255.50,*OC(=O)c1ccc(C(=O)OC2COC3C(*)COC23)cc1 (repeat unit)
5,248.00,*c1ccc(Oc2ccc(C(=O)c3ccc4cc(C(=O)c5ccc(Oc6ccc(-c7nc(-c8ccccc8)[nH]c7*)cc6)cc5)ccc4c3)cc2)cc1 (repeat unit)
6,80.00,*CCC(=O)NCc1cc(C)c(CNC(=O)CCO*)cc1C (repeat unit)
7,157.00,*CCCC(C)(C)CNC(=O)c1ccc(C(=O)N*)cc1 (repeat unit)
8,232.00,*Oc1ccc(C2(c3ccc(OC(*)=O)cc3C)CC3CC2C2C4CCC(C4)C32)cc1C (repeat unit)
9,80.00,*CC(*)(C)C(=O)OCCc1ccc(/N=N/c2ccccc2)cc1 (repeat unit)
10,32.00,*CC(*)c1ccc(CCCCCCCCCCCCCCCCCC)cc1 (repeat unit)
11,74.00,*CCCCCCCCCCCN1C(=O)c2ccc(Oc3ccc4c(c3)C(=O)N(*)C4=O)cc2C1=O (repeat unit)
12,155.80,*Oc1ccc(OC(=O)c2ccc(C(*)=O)cc2)cc1-c1cccc(C(F)(F)F)c1 (repeat unit)
13,9.50,*OC(=O)OCCOCCOCCOCCOC(=O)OC1COC2C(*)COC12 (repeat unit)
14,282.00,*c1ccc(Oc2ccc(C(=O)c3ccc(Oc4ccc(-c5nc(-c6cccc(-c7nc(*)c(-c8ccccc8)[nH]7)c6)[nH]c5-c5ccccc5)cc4)cc3)cc2)cc1 (repeat unit)
15,112.00,*CC(CCCCCCCCCCCC)COC(=O)NC(=O)c1cccc(C(=O)NC(=O)O*)c1 (repeat unit)
16,111.00,*CC(*)(CC(=O)Oc1ccc(OCCCCCCC)cc1)C(=O)Oc1ccc(OCCCCCCC)cc1 (repeat unit)
17,283.00,*C(=O)Nc1ccc(Oc2ccc(C3(c4ccc(Oc5ccc(NC(=O)c6ccc7c(c6)C(=O)N(c6ccc(Oc8ccc(S(=O)(=O)c9ccc(Oc%10ccc(N%11C(=O)c%12ccc(*)cc%12C%11=O)cc%10)cc9)cc8)cc6)C7=O)cc5)cc4)NC(=O)c4ccccc43)cc2)cc1 (repeat unit)
18,70.00,*CCCCC(=O)NCc1ccc(CNC(=O)CCCCO*)cc1 (repeat unit)
19,49.00,*CCCS(=O)(=O)CCCCS(=O)(=O)CCCOC(=O)c1ccccc1C(=O)O* (repeat unit)

row,glass transition temperature [°C],SMILES
1,327.00,*c1c(C)cc(-c2cc(C)c(N3C(=O)c4cccc(Oc5c(C)cc(-c6cc(C)c(Oc7cccc8c7C(=O)N(*)C8=O)c(C)c6)cc5C)c4C3=O)c(C)c2)cc1C (repeat unit)
2,31.00,*CC(*)(C)C(=O)OCCCCCCCCCCOc1ccc(OC(=O)c2ccc(OCCCC)cc2)cc1 (repeat unit)
3,195.00,*Oc1ccc(Oc2ccc(C(=O)c3cccc(C(=O)c4ccc(*)cc4)c3)cc2)cc1S(=O)(=O)O (repeat unit)
4,260.00,*c1ccc(Oc2ccc(-c3nc4cc(Oc5ccc(NC(=O)c6cc(C(=O)Nc7ccc(Oc8ccc9nc(-c%10ccccc%10)c(*)nc9c8)cc7)cc(N7C(=O)c8ccccc8C7=O)c6)cc5)ccc4nc3-c3ccccc3)cc2)cc1 (repeat unit)
5,280.00,*c1ccc(-c2nc3cc(Oc4ccc(NC(=O)CN5C(=O)c6ccc(C(c7ccc8c(c7)C(=O)N(CC(=O)Nc7ccc(Oc9ccc%10nc(-c%11ccccc%11)c(*)nc%10c9)cc7)C8=O)(C(F)(F)F)C(F)(F)F)cc6C5=O)cc4)ccc3nc2-c2ccccc2)cc1 (repeat unit)
6,28.90,*O[Si](*)(C)CC[Si](OCCOC)(OCCOC)OCCOC (repeat unit)
7,229.00,*c1ccc(Oc2c(C)cc(C(c3cccnc3)c3cc(C)c(Oc4ccc(N5C(=O)CC(Nc6ccc(NC7CC(=O)N(*)C7=O)cc6)C5=O)cc4)c(C)c3)cc2C)cc1 (repeat unit)
8,300.00,*=Cc1ccc(/C=N/c2c(-c3ccccc3)cc(-c3ccc(-c4cc(-c5ccccc5)c(N=*)c(-c5ccccc5)c4)cc3)cc2-c2ccccc2)cc1 (repeat unit)
9,29.00,*CCCCCCCCCCCNC(=O)CCCCCCCCCCCCCCCCCCC(=O)N* (repeat unit)
10,60.00,*CC#C/C(C#CCOC(=O)CCCCCCCCC(=O)O*)=C\c1ccc(C#Cc2ccc([N+](=O)[O-])cc2)cc1 (repeat unit)
11,15.00,*Oc1ccc(CC(NC(=O)CCc2ccc(OC(=O)CCCCCCC(*)=O)cc2)C(=O)OCCCCCCCCCCCC)cc1 (repeat unit)
12,10.00,*CC(*)(C)C(=O)OCCOCCOCC1(C)COCCOCCOCCOC1 (repeat unit)
13,222.50,*c1ccc(Oc2ccc(-c3ccc(Oc4ccc(N5C(=O)c6ccc(Oc7cc8ccccc8cc7Oc7ccc8c(c7)C(=O)N(*)C8=O)cc6C5=O)cc4)cc3)cc2)cc1 (repeat unit)
14,26.00,*Oc1ccc(C(=O)OCCCCCOC(=O)c2ccc(*)cc2)cc1 (repeat unit)
15,230.00,*Oc1cccc(Oc2ccc(NC(=O)c3cc(NC(=O)c4ccc(OC(C)=O)cc4)cc(C(=O)Nc4ccc(*)cc4)c3)cc2)c1 (repeat unit)
16,250.00,*c1ccc2c(c1)C(=O)N(c1cc(C(=O)Nc3c(C)cc(-c4cc(C)c(NC(=O)c5ccc(C)c(N6C(=O)c7ccc(C(*)(C(F)(F)F)C(F)(F)F)cc7C6=O)c5)c(C)c4)cc3C)ccc1C)C2=O (repeat unit)
17,-1.10,*CCCCCCCCCOc1ccc(CCc2ccc(O*)cc2C)cc1 (repeat unit)
18,312.00,*c1ccc2c(c1)C(=O)N(c1cccc(Oc3cccc(N4C(=O)c5ccc(C(F)(F)C(F)(F)C(*)(F)F)cc5C4=O)c3)c1)C2=O (repeat unit)
19,138.00,*Cc1ccc(C(C)(C)c2ccc(Cn3c(=O)c4cc5c(=O)n(*)c(=O)c5cc4c3=O)o2)o1 (repeat unit)

row,SMILES,glass transition temperature [°C]
1,*OC(COc1ccccc1)CC(*)=O (repeat unit),20.00
2,*CC(*)C(=O)OCC(C)C (repeat unit) [Poly(isobutyl acrylate) ],-24 ± 30
3,*c1ccc2c(c1)C(=O)N(c1cccc(P(=O)(c3ccccc3)c3cccc(N4C(=O)c5ccc(C(*)(C(F)(F)F)C(F)(F)F)cc5C4=O)c3)c1)C2=O (repeat unit),271.00
4,*/C(C)=C(/*)SCCCCCCCCCC (repeat unit),60.00
5,*CO* (repeat unit) [Polyoxymethylene ],-56 ± 8.9
6,*CC(*)OC(=O)C(C)(C)CCC (repeat unit),10.00
7,*CCCCCCOP(=O)(/N=N/c1ccc(COC(=O)c2cc(C(=O)OCc3ccc(/N=N/P(=O)(O*)OC)cc3)cc(C(C)(C)C)c2)cc1)OC (repeat unit),62.00
